Results reported in patent US5516803A, “Composition comprising a tramadol material and a non-steroidal anti-inflammatory drug” (priority 1995, dated 1996).

Experiments:
[1] = system: acetylcholine-induced abdominal constriction; assay: prevention of acetylcholine-induced abdominal constriction in mice (analgesic activity, oral); assay type: in vivo, male CD1 mice
Method: […]. The mice were all dosed orally with tramadol hydrochloride (calculated as the base), which was completely dissolved in distilled water, and ibuprofen (calculated as the base), which was completely dissolved in distilled water or in distilled water containing 2% by volume of Tween 80 containing 100% polysorbate 80. The dosing volume was 10 mL/kg.
The procedure used in detecting and comparing the analgesic activity of different classes of analgesic drugs for which there is a good correlation with human efficacy is the prevention of acetylcholine-induced abdominal constriction in mice (H. Collier et al., Br. J. Pharmacol., 32, 295 (1968)).
Mice, incubated with various doses of tramadol hydrochloride alone, ibuprofen alone, combined doses of tramadol hydrochloride and ibuprofen, or vehicle such as distilled water, or distilled water containing 2% by volume of Tween 80, were injected intraperitoneally with a challenge dose of acetylcholine bromide. […]. The mice were observed 10 minutes for the presence or absence of the abdominal constriction response beginning immediately after receiving the acetylcholine dose, which was 30 minutes after receiving the oral administration of tramadol hydrochloride,ibuprofen, combined doses of tramadol hydrochloride and ibuprofen, or vehicle. Each mouse was used only once.
The analysis of possible superadditivity for the compositions at each fixed ratio was determined as disclosed by R. J. Tallarida et al., Life Sci., 45, 947 (1989). This procedure involved the determination of the total amount in the mixture that is required to produce a specified level of effect, such as 50% (ED50mix), and the corresponding total amount that would be expected under simple additivity (ED50add). Where it was established that ED50mix <ED50add for a specific fixed-ratio, then that composition ratio was superadditive. Both the quantities ED50mix and ED50add were random variables; ED50mix was estimated from the dose-response curve for a specific fixed-ratio; ED50add was obtained by combining the ED50 estimates for the two drugs under additivity. ED50mix was then compared to ED50add via a Student's t-test. […]. The interaction between tramadol and ibuprofen was determined at precise dosage ratios of tramadol hydrochloride and ibuprofen. Multiple (typically 4-6) coded doses of each selected combination were studied for analgesic effectiveness after 30 minutes using an experimental design which permitted the complete randomization of the separate dosage forms tested.
In FIG. 1, the diagonal line joining the ED50 values of the two drugs given separately represents the simple additivity of effects at different component ratios. The dotted lines adjacent to the diagonal line define the 95% confidence interval. ED50 values falling under the curve (between the line and the origin) indicate superadditivity, i.e., unexpected enhancement of effects. The diagonal dashed lines radiating from the origin represent the dose ratios of ibuprofen to tramadol hydrochloride used in mice receiving the combined drug dosages. The bars through the ED50 points for the tramadol and ibuprofen composition represent the 95% confidence intervals of the ED50 value. […]

[2] = cited from earlier work; for intensity of pain relieved / tolerance, addiction and toxicity: compared with opioid analgesics; for opioid side effects: Goodman and Gilman's, 8th edition

Q: Which “ED50 value for drug alone” value ([1]; drug alone, oral, 30 min, range in parentheses 95% CI) does the source give for COc1cccc(C2(O)CCCCC2CN(C)C)c1 (single isomer, unassigned) [tramadol, (1R, 2R or 1S, 2S)-2-[(dimethylamino)methyl]-1-(3-methoxyphenyl)cyclohexanol] here?
A: 5.5(4.8-6.4) mg/kg

Q: What about the “ED50 at 30 min (95% CI's), Tramadol” value ([1]; p.o., tramadol component (calculated as base), Table I) of the same molecule?
A: 5.5 mg/kg

Q: With CC(=O)Oc1ccccc1C(=O)O [aspirin] as the molecule, how does the “intensity of pain relieved” value [2] read?
A: only useful in relieving pain of moderate intensity

Q: What about the “tolerance, addiction and toxicity” value [2] of the same molecule?
A: not subject to the tolerance, addiction and toxicity of the opioid analgesics

Q: With COc1ccc2c3c1O[C@H]1[C@@H](O)C=C[C@H]4[C@@H](C2)N(C)CC[C@@]341 [codeine] as the molecule, how does the opioid side effects [2] read?
A: respiratory depression, constipation, tolerance and abuse liability

Q: Which opioid side effects [2] does the source give for COc1ccc2c3c1O[C@H]1C(=O)CC[C@H]4[C@@H](C2)N(C)CC[C@]314 [hydrocodone] here?
A: respiratory depression, constipation, tolerance and abuse liability

Q: Which ED50 ([1]; Mus musculus, 0.5 h, drug alone, oral, 30 min, range in parentheses 95% CI) does the source give for CC(C)Cc1ccc(C(C)C(=O)O)cc1 (stereo not drawn) [ibuprofen, 2-(p-isobutylphenyl)propionic acid] here?
A: 33.5 mg/kg

Q: What about the analgesia ([1]; tramadol 0, ibuprofen 10 mg/kg, p.o., 30 min) of the same molecule?
A: 2/15

Q: And the analgesia ([1]; tramadol 0, ibuprofen 20 mg/kg, p.o., 30 min)?
A: 4/15

Q: What about the analgesia ([1]; tramadol 0, ibuprofen 40 mg/kg, p.o., 30 min) of the same molecule?
A: 8/15

Q: And the analgesia ([1]; tramadol 0, ibuprofen 80 mg/kg, p.o., 30 min)?
A: 13/15

Q: And the analgesia ([1]; tramadol 0, ibuprofen 160 mg/kg, p.o., 30 min)?
A: 14/15

Q: And the “intensity of pain relieved” value [2]?
A: only useful in relieving pain of moderate intensity

Q: What about the “tolerance, addiction and toxicity” value [2] of the same molecule?
A: not subject to the tolerance, addiction and toxicity of the opioid analgesics

Q: With COc1ccc2c3c1O[C@H]1C(=O)CC[C@@]4(O)[C@@H](C2)N(C)CC[C@]314 [oxycodone] as the molecule, how does the opioid side effects [2] read?
A: respiratory depression, constipation, tolerance and abuse liability
